According to patent publication US12084422B2, “Phenyl-n-quinoline derivatives for treating a RNA virus infection” (ABIVAX, priority 2018, dated 2024):

Experiments:
RSV A2 = experiment: Screening for RSV inhibition using Viral ToxGlo assay in HEp-2 cells; type: cell-based; settings: human respiratory syncytial virus, HEp-2, 72 h
Experimental: Protocol for Screening Antiviral Compounds for RSV Inhibition and Cytotoxicity Using Viral ToxGlo Assay
HEp-2 cells were maintained in Eagle's minimum essential medium (EMEM) with Earle's BSS adjusted to contain 2 mM L-glutamine, 10% fetal bovine serum, 100 U/ml penicillin and 100 μg/ml streptomycin. For the purposes of the screening assay they were grown to 90% confluency, trypsinized and recovered. The trypsin was neutralised with cell culture media and cells were centrifuged at 150×g for 5 minutes before discarding the supernatant and resuspending cell pellet in assay media (EMEM with Earle's BSS adjusted to contain 2 mM L-glutamine, 2% fetal bovine serum and 100 U/ml penicillin and 100 μg/ml streptomycin). The cells were seeded into white clear-bottomed cell culture plates at a density of 1.5×10^4 cells/well in 50 μl and 4×10^3 cells/well in 25 μl for 96 well plates and 384 well plates respectively. For the media/background control column assay media only was added. Cell plates were placed in a humid chamber and incubated overnight at 37° C./5% CO2. After overnight incubation cells were checked for confluency and healthy appearance.
Test articles were made up at 10× test concentration in a maximum DMSO concentration of 10% (final assay concentration maximal 1% DMSO) and added to the cell plates in volumes of 10 μl for 96 well plates and 5 μl for 384 well plates. For cell control and virus control wells the test article solvent only was added. Virus or assay media for cytotoxicity test wells and media/cell control wells was added immediately after test articles at an MOI of 0.5, 40 or 20 μl for 96 and 384 well plates respectively. Virus suspension was prepared by thawing RSV A2 frozen stocks and diluting to the required concentration of plaque forming units in assay media on ice.
(§1) Cell plates were further incubated inside a humid chamber for 72 h p.i at 37° C./5% CO2. After the incubation period cells were observed under the microscope to check for characteristic cytopathic effect in virus control wells and healthy cells in the cell control wells. After plates were adjusted to room temperature 20/40 μl Viral ToxGlo (Promega) was added to each well of the 384/96 well cell plates. Plates were incubated at room temperature, protected from light on a plate rocker for 20 minutes before measuring the luminescence on a spectrophotometer (Biotek Synergy HTX).
RSV inhibition was calculated as percentage of cytopathic effect inhibition relative to the virus control and cytotoxicity as percentage of cell survival relative to cell control wells. This allowed EC50 values to be calculated for each test article where a virus inhibition or cytotoxic dose response was identified. EC50 values ranging between 0.001 µM and 5 μM could thus be determined for compounds 1, 6, 10, 13, 28, 38, 43, 47, 48, 49, 50, 51, 52, 53, 54, 55, 56 and 57.

DENV-2 strain 16681 = experiment: Screening for DENV-2 inhibition using Viral ToxGlo assay in A549 cells; type: cell-based, Dengue 2 virus; settings: Dengue virus, DENV2, A549, 120 h, read-out: % DENV-2 Inhibition Mean (n = 3)
Experimental: Protocol for Screening Antiviral Compounds for DENV-2 Inhibition and Cytotoxicity Using Viral ToxGlo Assay
A549 cells were maintained in Dulbecco's Modified Eagle Medium (DMEM) supplemented with 10% fetal bovine serum, 100 U/ml penicillin and 100 μg/ml streptomycin. For the purposes of the screening assay they were grown to 90% confluency, trypsinized and recovered. The trypsin was neutralised with cell culture media and cells were centrifuged at 150×g for 5 minutes before discarding the supernatant and resuspending cell pellet in assay media (DMEM supplemented with 2% fetal bovine serum and 100 U/ml penicillin and 100 μg/ml streptomycin). The cells were seeded into 96-well white clear-bottomed cell culture plates at a density of 1.0×10^4 cells/well in 50 μl. For the media/background control column assay media only was added. Cell plates were placed in a humid chamber and incubated overnight at 37° C./5% CO2. After overnight incubation cells were checked for confluency and healthy appearance.
Test compounds were prepared at a final concentration of 10 μM, in a maximum DMSO concentration of 1% (final assay concentration maximal 0.1% DMSO) and added to the cell plates in volumes of 10 μl. For cell control and virus control wells the test article solvent only was added. As a positive inhibition control, 7-Deaza-2′-C-methyladenosine was added at 100 μM in 3 wells. Virus (DENV-2 strain 16681) or assay media for cytotoxicity test wells and media/cell control wells was added immediately after test articles at an MOI of 0.5, 40 for 96 well plates respectively. Virus suspension was prepared by thawing DENV-2 frozen stocks and diluting to the required concentration of plaque forming units in assay media.
as §1, with “5 days” for “72 h”, “20” for “20/40”, “96-well” for “384/96 well”, “temperature” for “temperature, protected from light on a plate rocker”, “5” for “20”, “(Envision, PerkinElmer).” for “(Biotek Synergy HTX).”
DENV-2 inhibition was calculated as percentage of cytopathic effect inhibition relative to the virus control and cytotoxicity as percentage of cell survival relative to cell control wells.

[1] = tested on: Chikungunya Virus (CHIKV) strain LR2006-OPY1 with GFP modification (CHIK 5'LR); experiment: Inhibition of Chikungunya virus (CHIKV) production in infected HEK293T cell line (GFP fluorescence); type: cell-based; settings: HEK-293T, infected HEK293T cells; for IC50: second round of experiments; for inhibition at 1 µM: compounds at 1 μM, MOI 0.1, 22 h, values above 100 lowered to 100, read-out: % CHIKV Inhibition Mean (n = 2)
Experimental: The ability of the compounds to inhibit viral replication was assessed with an experiment in which infected cells were treated by compounds of formula (I) at 1 μM. As a positive control for inhibition of Chikungunya, Ribavirin was used. Toxicity of the compounds was assessed in parallel.
Human embryonic kidney cells 293T (HEK293T, CRL-11268) were maintained in Dulbecco's modified Eagle's Medium (DMEM, 31966-021, Thermo Fisher Scientific) supplemented with 10% of fetal bovine serum (FBS), penicillin and streptomycin. After removal of the medium, cells were washed with a Ca^2+- and Mg^2+-free salt solution to remove all traces of serum. After aspiration of wash solution, cells were dissociated with 0.25% Trypsin-EDTA solution and incubated 30 s at least in 37° ° C. incubator. Concentration of cell suspension was determined by an automatic cell counter (EVE, NanoEntek) and, if needed, adjusted to 0.33×10^6 cells/mL with DMEM medium supplemented with 10% FBS.
100 μL of the cell suspension were dispatched in a ViewPlate-96 Black (6005182, PerkinElmer) and in a transparent 96-well cell culture plate (655180, Greiner bio-one). After an incubation for 24 h at 37° C. under 5% of CO2, compounds were added at the proper concentration.
An intermediate dilution was prepared with DMSO (D8418, Sigma) at 2 mM in a 96-well V-bottom microplate from the stock solution:
Mix 1 μL of the 50 mM stock library in 25 μL of DMSO.
Mix 2 μL of the 25 mM stock library in 25 μL of DMSO.
An intermediate dilution was prepared with DMSO (D8418, Sigma) at 25 mM in a 96-well V-bottom microplate from the stock solution:
Mix 2 μL of the 50 mM stock library in 2 μL of DMSO.
Serial dilutions were performed in 2 μL of DMSO 13 times to reach 0.0015 mM as follows in table III:
For both screen and determination of IC50 1 μL of each solution was added in a 1 mL Masterblock 96 wells (Greiner bio-one, 780261) containing 1 mL of DMEM medium. As a positive control, 5 μL of a 80 mM Ribavirin solution (R9644, Sigma) is added to 1 mL of DMEM. On the other hand, DMSO is used as a negative control.
[…]. Vector Borne Zoonotic Dis. 2006; 6(4)). This modified virus was used to infect cells at MOI 0.1. […].
Medium was removed after 22 h at 37° ° C. under 5% of CO2 and cells were washed as described above. 60 μL of RIPA buffer (50 mM Tris-HCl pH8, 100 mM NaCl, 1 mM MgCl2, 1% Triton X-100) was added to cells and incubated for at least 20 min before reading fluorescence signal. Pierce 660 nm Protein Assay Reagent (22660, Thermo scientific) was used to normalize fluorescence signal by protein quantity.
A first round of experiments has been performed wherein the results are expressed as inhibition percentage, which is calculated as follows, through the following steps:
1. Fluorescence intensity (FI) 509 nm/Absorbance 660 nm (A660)=A
This ratio allows considering the infection (GFP virus) to the protein amount.
2. A′=A—background noise of non-infected plate,
3. B=Fluorescence intensity (FI)/Absorbance 660 nm (A660) of infected but non treated plates,
4. C=A′/B which is then converted as the percentage of infection after treatment, compared to non-treated sample, and subsequently as the […]. For instance, a value of 100 in Table IV here below means that, after treatment, the signal attributed to GFP fluorescence is abolished, which is correlated to the absence of infection.
This value corresponds to the inhibition's percentage.
The following Table IV encompasses said C′ value for some compounds as calculated above with a mean of 2 experiments, and the corresponding standard deviation.
Some values were originally above 100. In these cases, the value has been lowered to 100. This means that some molecules also have an impact on the viability of the cells. In other words, the A value may be lower than the background noise.
Moreover, for each measure, the test was performed with Ribavirin as control. The value of the inhibition percentage was checked, giving 100%.

Cc1cc(OC(C)C)c(C2CC2)cc1Nc1ccc2cccc(Cl)c2n1 [Compound 48, 8-chloro-N-(5-cyclopropyl-4-isopropoxy-2-methylphenyl)quinolin-2-amine]
EC50 (RSV A2): 360 nM

Cc1cc(Oc2ccccc2F)c(C)cc1Nc1ccc2cccc(Cl)c2n1 [Compound 63, 8-chloro-N-(4-(2-fluorophenoxy)-2,5-dimethylphenyl)quinolin-2-amine 2,2,2-trifluoroacetate]
inhibition at 10 µM (DENV-2 strain 16681): 74%

Clc1cccc2ccc(Nc3ccc(OC4CCC4)cc3C3CC3)nc12 [Compound 42, 8-chloro-N-(4-cyclobutoxy-2-cyclopropylphenyl)quinolin-2-amine]
IC50 [1]: 1 to 200 nM
inhibition at 10 µM (DENV-2 strain 16681): 84%

CCOc1ccc(Nc2ccc3cccc(Cl)c3n2)c(C)c1 [Compound 12, 8-chloro-N-(4-ethoxy-2-methylphenyl)quinolin-2-amine]
inhibition at 1 µM [1]: 95%
inhibition at 10 µM (DENV-2 strain 16681): 129%

Cc1cc(Oc2ccc3ccccc3c2)ccc1Nc1ccc2cccc(Cl)c2n1 [Compound 57, 8-chloro-N-(2-methyl-4-(naphthalen-2-yloxy)phenyl)quinolin-2-amine]
EC50 (RSV A2): 473 nM

Cc1cc(OC2CCCC2)ccc1Nc1ccc2cccc(Cl)c2n1 [Compound 16, 8-chloro-N-(4-(cyclopentyloxy)-2-methylphenyl)quinolin-2-amine]
inhibition at 1 µM [1]: 98%
IC50 [1]: 1 to 200 nM
inhibition at 10 µM (DENV-2 strain 16681): 77%

Clc1cccc2ccc(Nc3ccc(OC4CCCC4)cc3C3CC3)nc12 [Compound 44, 8-chloro-N-(4-(cyclopentyloxy)-2-cyclopropylphenyl)quinolin-2-amine]
IC50 [1]: 1 to 200 nM
inhibition at 10 µM (DENV-2 strain 16681): 94%

Cc1ccc(Oc2ccc(Nc3ccc4ccccc4n3)cc2)cc1 [Compound 28, N-(4-(p-tolyloxy)phenyl)quinolin-2-amine]
EC50 (RSV A2): 1780 nM

COc1ccc(Oc2ccc(Nc3ccc4ccccc4n3)cc2)c(F)c1 [Compound 77, N-(4-(2-fluoro-4-methoxyphenoxy)phenyl)quinolin-2-amine]
inhibition at 10 µM (DENV-2 strain 16681): 87%

CCc1cc(Oc2ccc(OC)cc2F)ccc1Nc1ccc2ccccc2n1 [Compound 76, N-(2-ethyl-4-(2-fluoro-4-methoxyphenoxy)phenyl)quinolin-2-amine]
inhibition at 10 µM (DENV-2 strain 16681): 78%

CC(C)Oc1ccc(Nc2ccc3cccc(Cl)c3n2)c(C2CC2)c1 [Compound 20, 8-chloro-N-(2-cyclopropyl-4-isopropoxyphenyl)quinolin-2-amine]
inhibition at 1 µM [1]: 99%
IC50 [1]: 1 to 200 nM
inhibition at 10 µM (DENV-2 strain 16681): 94%

Cc1cc(OC2CCC2)ccc1Nc1ccc2cccc(Cl)c2n1 [Compound 22, 8-chloro-N-(4-cyclobutoxy-2-methylphenyl)quinolin-2-amine]
inhibition at 1 µM [1]: 100%
IC50 [1]: 1 to 200 nM
inhibition at 10 µM (DENV-2 strain 16681): 82%

CCc1cc(Oc2ccccc2F)ccc1Nc1ccc2ccccc2n1 [Compound 39, N-(2-ethyl-4-(2-fluorophenoxy)phenyl)quinolin-2-amine]
inhibition at 1 µM [1]: 99%
IC50 [1]: 1 to 200 nM
inhibition at 10 µM (DENV-2 strain 16681): 104%

Fc1ccccc1Oc1ccc(Nc2ccc3ccccc3n2)c(C2CC2)c1 [Compound 46, N-(2-cyclopropyl-4-(2-fluorophenoxy)phenyl)quinolin-2-amine]
IC50 [1]: 1 to 200 nM
inhibition at 10 µM (DENV-2 strain 16681): 104%

CCc1cc(OC(F)(F)F)cc(C)c1Nc1ccc2cccc(Cl)c2n1 [Compound 5, 8-chloro-N-(2-ethyl-6-methyl-4-(trifluoromethoxy)phenyl)quinolin-2-amine]
inhibition at 10 µM (DENV-2 strain 16681): 156%

Cc1cc(OC(C)C)c(C(C)C)cc1Nc1ccc2cccc(Cl)c2n1 [Compound 40, 8-chloro-N-(4-isopropoxy-5-isopropyl-2-methylphenyl)quinolin-2-amine]
IC50 [1]: 1 to 200 nM
inhibition at 10 µM (DENV-2 strain 16681): 97%
